Values after ≈ are worked out from the molar mass of the structure shown. Like-named read-outs stand apart in the source and are kept apart here.
How the values were obtained:
[1] = test system: mice; assay: Effects on spontaneous activities in mice; assay type: in vivo; conditions: for spontaneous activity compared with the vehicle control group: recorded at 0.5, 1, 2, 3 and 4 hours
Experimental: Chlorpromazine was administered at dose of […] in the positive control group, and the same volume of propylene glycol containing 0.9% sodium chloride injection was administered in the vehicle control group. Spontaneous activity was recorded at 0.5, 1, 2, 3 and 4 hours after drug administration. The injection volume was 0.2 ml/10 g and the administration rate was 0.2 ml/10 sec.

[2] = test system: Kunming mice; assay: Acute toxicology test, LD50 in mice (Bliss method); assay type: in vivo; conditions: oral gavage; for Number of dead animals: 10 animals; for Probability units (Y): 1600 mg/kg
[3] = test system: Beagle dogs; conditions: dog, in vivo, iv, 200 mg/kg
Source text: 2. Toxicity Test in Beagle Dogs (Non-Rodent) After Intravenous Administration of L-ornidazole for Two Weeks
Beagle dogs, 4 dogs in each group with half females and half males, were divided into L-, D-, and racemic ornidazole groups.

[4] = test system: bacteroides (including Escherichia coli) infection; assay: Abdominal infection model in mice, ED50; assay type: in vivo, Kunming white mice; conditions: death observed 7 days; for 95% CI of ED50: oral gavage twice
Experimental: (§1) Kunming white mice, body weight of 20±2 g, half males and half females. 10 mice in each dose group with half females and half males. Abdominal infection models were prepared with the entire animal (mice) and treatments were conducted with the testing drugs. The therapeutical efficacy was observed and expressed as ED50 (half effective dose). Drugs were administered twice by oral gavage (administered immediately after infection for one and 6 hours after infection for the other one). The death status of animals was observed consecutively for seven days after infection and being treated.

[5] = test system: peptostreptococcus (including Escherichia coli); assay: Abdominal infection model in mice, ED50; assay type: in vivo, Kunming white mice; conditions: death observed 7 days; for 95% CI of ED50: oral gavage twice
Experimental: as §1

[6] = test system: mice; assay: Effect on the hypnotic effect induced by sodium thiopental in mice; conditions: 40 mg/kg sodium thiopental i.p. 30 minutes later
Experimental: The same volume of 0.9% sodium chloride injection containing propylene glycol was administered in the vehicle control group. 30 minute after drug administration, 40 mg/kg of sodium thiopental was administered to mice by intraperitoneal injection. The time for the loss of righting reflex and the time for the recovery were recorded. The injection volume was 0.2 ml/10 g, the administration rate was 0.2 ml/10 sec.

[7] = test system: mice; assay: Hypnotic effect of intravenous injection in mice (righting reflex); assay type: in vivo
Experimental: White mice, half males and half females, fasted for eight hours. The disappearance of righting reflex in mice was observed. The number of animals who lost their righting reflex was recorded in 30 minutes after drug administration.

[8] = test system: Peptostreptococcus; assay: In vitro MIC determination, clinical anaerobic strains; assay type: cell-based; conditions: 35 clinical strains, GAM broth, 72 hours anaerobic incubation at 35° C.
Experimental: (§2) Experimental strains: isolated from clinical specimens, and species identification were conducted.
(§3) Bacilli preparation: 4˜5 bacteria colonies with same pattern selected from anaerobic GAM plate were inoculated in GAM broth with inoculating loop. The bacteria was incubated at 35° C. under anaerobic condition until a slight turbidity was attained, and adjusted by means of sterilized saline (deoxygenated) so as to attain a turbidity equivalent to the No. 0.5 McFarland turbidity tube, then diluted with GAM broth (at 1:200) for later use.
(§4) MIC (Minimum Inhibitory Concentration) determination: the testing drugs and control drugs were diluted with GAM broth to different concentrations in the test tubes, followed by addition of equal volume of diluted Bacilli (at 1:200), MIC values were read 72 hours after anaerobic incubation at 35° C.

[9] = test system: Fusobacterium nucleatum; assay: as above; assay type: cell-based; conditions: 11 clinical strains, GAM broth, 72 hours anaerobic incubation at 35° C.
Experimental: as §2, §3, §4

[10] = test system: Bacteroides; assay: as above; assay type: cell-based; conditions: 40 clinical strains, GAM broth, 72 hours anaerobic incubation at 35° C.
Experimental: as §2, §3, §4

[11] = test system: Veillonella; assay: as above; assay type: cell-based; conditions: 23 clinical strains, GAM broth, 72 hours anaerobic incubation at 35° C.
Experimental: as §2, §3, §4

[12] = test system: Clostridium; assay: as above; assay type: cell-based; conditions: 6 clinical strains, GAM broth, 72 hours anaerobic incubation at 35° C.
Experimental: as §2, §3, §4

[13] = In vivo pharmacokinetics in Beagle dogs
Experimental: The clinical dose of ornidazole is 500 mg for human. By calculating, based on body surface area, the pharmacokinetic experimental dose in Beagle dogs was 13 mg/kg in vivo. Six adult beagle dogs (half males and half females, body weight of 9˜11.5 kg) were randomly divided into three groups. According to crossover design, intravenous injection of L-, D-, and racemic ornidazole were administered in turn to each dog every other week (with one week washout period in between). 2 ml of blood was collected from the vein located at the forelimb of the dogs before drug administration and 0.083, 0.5, 1.0, 2.0, 4.0, 6.0, 8.0, 12.0, 16.0, 24.0 hours after drug administration, which was then placed in the heparinized tube, followed by centrifugation to obtain the plasma. Plasma concentration of drug was determined by HPLC. Pharmacokinetics parameters were estimated using the non-compartmental models. The corresponding pharmacokinetics parameters were obtained by BAPP2.0 using the data of plasma concentration of blood with time obtained above.

[14] = oral gavage twice (immediately and 6 hours after infection)
[15] = beagle dogs, individual intravenous dose 13 mg/kg, plasma

Structure (SMILES): Cc1ncc([N+](=O)[O-])n1C[C@H](O)CCl [L-ornidazole, 1-(3-chloro-2-S-(−)-hydroxypropyl)-2-methyl-5-nitroimidazole]
- spontaneous activity compared with the vehicle control group ([1]; 40 mg/kg intravenous): significant reduction in spontaneous activity was not observed
- recovery of spontaneous activity ([1]; 80 mg/kg intravenous): gradually become normal after 2 hours
- spontaneous activity compared with the vehicle control group ([1]; 80 mg/kg intravenous): reduced significantly at 0.5 and 1 hour
- recovery of spontaneous activity ([1]; 160 mg/kg intravenous): gradually become normal after 3 hours
- spontaneous activity compared with the vehicle control group ([1]; 160 mg/kg intravenous): reduced significantly at 0.5, 1 and 2 hours
- Number of dead animals ([2]; 655.4 mg/kg): 0
- Number of dead animals ([2]; 819.2 mg/kg): 1
- Number of dead animals ([2]; 1024 mg/kg): 4
- Death rate ([2]; 1280 mg/kg): 80%
- Number of dead animals ([2]; 1280 mg/kg): 8
- Probability units (Y) [2]: 6.96
- food intake and body weight [3]: Food intake of testing animals was inhibited while body weight of the testing animals was inhibited to a certain extent
- histological examination of organs [3]: Significant pathological changes were not found
- manifestations (toxicity and side effects) [3]: merely drooling, vomiting, involuntary urination and the like
- recovery time of manifestations [3]: 1 to 2 h
- toxic effects [3]: significant toxic effects were not observed
- ED50 (half effective dose) [4, 14]: 31.0 mg/kg
- 95% CI of ED50 [4]: 43.3˜22.2 mg/kg
- ED50 (half effective dose) [5, 14]: 42.0 mg/kg
- 95% CI of ED50 [5]: 50.9˜34.6 mg/kg
- duration of sleeping induced by sodium thiopental, compared with the vehicle control group ([6]; 40 mg/kg intravenous): did not significantly extend
- sleep latency induced by sodium thiopental, compared with the vehicle control group ([6]; 40 mg/kg intravenous): no significant reduction
- duration of sleeping induced by sodium thiopental, compared with the vehicle control group ([6]; 80 mg/kg intravenous): significantly extended
- sleep latency induced by sodium thiopental, compared with the vehicle control group ([6]; 80 mg/kg intravenous): no significant reduction
- number of mice with loss in righting reflex ([7]; mice, individual dose of 160 mg/kg intravenous, within 30 minutes): No loss in righting reflex
- loss in righting reflex ([7]; mice, individual dose of 40 or 80 mg/kg intravenous, within 30 minutes): No loss in righting reflex
- MIC50 [8]: 4.0 µg/mL (≈ 18.2 µM)
- MIC90 [8]: 8.0 µg/mL (≈ 36.4 µM)
- MIC Range [8]: 2.0~32.0 mg/L
- MIC50 [9]: 2.0 µg/mL (≈ 9.11 µM)
- MIC90 [9]: 16.0 µg/mL (≈ 72.9 µM)
- MIC Range [9]: 1.0~16.0 mg/L
- MIC50 [10]: 4.0 µg/mL (≈ 18.2 µM)
- MIC90 [10]: 8.0 µg/mL (≈ 36.4 µM)
- MIC Range [10]: 20~16.0 mg/L
- MIC50 [11]: 4.0 µg/mL (≈ 18.2 µM)
- MIC90 [11]: 8.0 µg/mL (≈ 36.4 µM)
- MIC Range [11]: 2.0~8.0 mg/L
- MIC50 [12]: 2.0 µg/mL (≈ 9.11 µM)
- MIC90 [12]: 2.0 µg/mL (≈ 9.11 µM)
- MIC Range [12]: 1.0~2.0 mg/L
- AUC0-t (area under curve) [13, 15]: 90940 ± 8330 ng·h/mL
- Cl (clearance) [13, 15]: 1.22 ± 0.13 L/h
- MRT (mean retention time of drugs) [13, 15]: 10.06 ± 1.57 h
- Vβ (elimination volume of distribution) [13, 15]: 12.23 ± 1.84 L
- t1/2 (half life) ([13]; beagle dogs, individual intravenous dose 13 mg/kg, plasma, HPLC, non-compartmental): 6.97 ± 1.09 h
- in vivo transformation of enantiomers between L- and D-ornidazole ([13]; dog, in vivo, iv): not occurred

Structure (SMILES): Cc1ncc([N+](=O)[O-])n1CC(O)CCl (racemic) [racemic ornidazole, ornidazole]
- recovery of spontaneous activity ([1]; 40 mg/kg intravenous): gradually become normal after 2 hours
- spontaneous activity compared with the vehicle control group ([1]; 40 mg/kg intravenous): reduced significantly 1 hour after administration
- recovery of spontaneous activity ([1]; 80 mg/kg intravenous): gradually become normal after 3 hours
- spontaneous activity compared with the vehicle control group ([1]; 80 mg/kg intravenous): reduced significantly at 0.5, 1 and 2 hours
- recovery of spontaneous activity ([1]; 160 mg/kg intravenous): gradually become normal after 4 hours
- spontaneous activity compared with the vehicle control group ([1]; 160 mg/kg intravenous): reduced significantly at 0.5, 1, 2 and 3 hours
- Number of dead animals ([2]; 655.4 mg/kg): 0
- Number of dead animals ([2]; 819.2 mg/kg): 2
- Number of dead animals ([2]; 1024 mg/kg): 7
- Death rate ([2]; 1280 mg/kg): 90%
- Number of dead animals ([2]; 1280 mg/kg): 9
- Probability units (Y) [2]: 7.19
- number of Purkinje cells in cerebellum (histological examination) [3]: No reduction in the number of Purkinje cells and cellular degeneration was observed
- ED50 ([4]; Bacteroides, oral gavage twice (immediately and 6 hours after infection), read-out: ED50 (half effective dose)): 39.9 mg/kg
- 95% CI of ED50 [4]: 51.9˜30.7 mg/kg
- ED50 ([5]; Peptostreptococcus, oral gavage twice (immediately and 6 hours after infection), read-out: ED50 (half effective dose)): 49.1 mg/kg
- 95% CI of ED50 [5]: 61.1˜39.4 mg/kg
- sleep latency induced by sodium thiopental, compared with the vehicle control group ([6]; 40 mg/kg intravenous): no significant reduction
- sleep latency induced by sodium thiopental, compared with the vehicle control group ([6]; 80 mg/kg intravenous): significantly reduced
- number of mice with loss in righting reflex ([7]; both, mouse, in vivo, iv, 160 mg/kg, 30 min): 6 mice
- MIC50 ([8]; Peptostreptococcus, read-out: MIC50): 4 µg/mL (≈ 18.2 µM)
- MIC90 ([8]; Peptostreptococcus, read-out: MIC90): 8 µg/mL (≈ 36.4 µM)
- MIC Range [9]: 1.0~32.0 mg/L
- MIC50 ([9]; Fusobacterium nucleatum, read-out: MIC50): 2 µg/mL (≈ 9.11 µM)
- MIC90 ([9]; Fusobacterium nucleatum, read-out: MIC90): 32 µg/mL (≈ 146 µM)
- MIC Range [10]: 2.0~16.0 mg/L
- MIC50 ([10]; Bacteroides, read-out: MIC50): 4 µg/mL (≈ 18.2 µM)
- MIC90 ([10]; Bacteroides, read-out: MIC90): 8 µg/mL (≈ 36.4 µM)
- MIC Range [11]: 2.0~16.0 mg/L
- MIC50 ([11]; Veillonella, read-out: MIC50): 4 µg/mL (≈ 18.2 µM)
- MIC90 ([11]; Veillonella, read-out: MIC90): 8 µg/mL (≈ 36.4 µM)
- MIC Range [12]: 1.0~2.0 mg/L
- MIC50 ([12]; Clostridium, read-out: MIC50): 2 µg/mL (≈ 9.11 µM)
- MIC90 ([12]; Clostridium, read-out: MIC90): 2 µg/mL (≈ 9.11 µM)
- half-life ([13]; both sexes, dog, beagle dogs, individual intravenous dose 13 mg/kg, plasma, HPLC, non-compartmental, read-out: t1/2 (half life) (converted)): 5.55 ± 3.12 h
- AUC(0-t) ([13]; both sexes, dog, beagle dogs, individual intravenous dose 13 mg/kg, plasma, read-out: AUC0-t (area under curve)): 76700 ± 10800 ng·h/mL
- clearance ([13]; both sexes, dog, beagle dogs, individual intravenous dose 13 mg/kg, plasma, read-out: Cl (clearance) (converted)): 23.8 mL/min
- MRT ([13]; both sexes, dog, beagle dogs, individual intravenous dose 13 mg/kg, plasma, read-out: MRT (mean retention time of drugs)): 8.01 ± 3.42 h
- Vd ([13]; both sexes, dog, beagle dogs, individual intravenous dose 13 mg/kg, plasma, read-out: Vβ (elimination volume of distribution)): 11.2 ± 3.96 L

Reference: patent publication US8530507B2, “Use of levo-ornidazole in the preparation of anti-anaerobic bacteria infection drugs” (priority 2005, dated 2013)
